The term IC50 denotes the concentration at which inhibition is half-maximal.

A value given as a limit tells only on which side of the number the result lay.

The assay deals with T1, CCR4 (Homo sapiens, UniProt P51679).
T1 construct: CEM Cells Endogenous Express CCR4; endogenous in cells; host or cells: CEM cells
T1 sequence (P51679 1-360): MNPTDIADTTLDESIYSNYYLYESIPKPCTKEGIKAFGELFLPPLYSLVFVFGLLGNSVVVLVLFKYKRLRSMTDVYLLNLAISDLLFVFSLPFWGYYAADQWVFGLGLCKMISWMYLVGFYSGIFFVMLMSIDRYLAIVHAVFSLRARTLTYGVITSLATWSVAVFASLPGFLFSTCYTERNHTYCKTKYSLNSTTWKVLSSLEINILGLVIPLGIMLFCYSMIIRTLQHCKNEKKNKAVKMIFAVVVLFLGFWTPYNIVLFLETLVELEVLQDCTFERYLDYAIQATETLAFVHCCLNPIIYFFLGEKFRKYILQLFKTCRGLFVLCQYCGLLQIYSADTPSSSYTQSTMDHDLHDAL
In words: CEM cell chemotaxis (migration) assay to CCL22 (MDC) in 100% Fetal Bovine Serum (FBS). Format: cell-based. Particulars: CEM cells in 100% FBS with 1% HEPEs; recombinant human CCL22 0.1 nM; 37° C. 60 minutes. The text has this:
CEM Cells Endogenous Express CCR4
A chemotaxis assay can be used to determine the efficacy of potential receptor antagonists at blocking the migration mediated through chemokine receptors, such as CCR4. This assay is routinely performed using the ChemoTX® microchamber system with a 5 μm pore-sized polycarbonate membrane.
FBS: CEM Cells are collected by centrifugation at 400×g at room temperature, then suspended at 5 million/ml in 100% Fetal Bovine Serum (FBS) with 1% HEPEs. The compound being tested is serially diluted from a maximum final concentration of 10 μM (or an equivalent volume of its solvent (DMSO)) and is then added to the cell/buffer mixture. Separately, recombinant human CCL22 (MDC) at its EC50 concentration (0.1 nM) is placed in the lower wells of the ChemoTX® plate. The 5-μm (pore size) polycarbonate membrane was placed onto the plate, and 20 μL of the cell/compound mixture is transferred onto each well of the membrane. The plates are incubated at 37° C. for 60 minutes, after which the polycarbonate membranes are removed and 5 μl of the DNA-intercalating dye CyQUANT (Invitrogen, Carlsbad, CA) is added to the lower wells. The amount of fluorescence, corresponding to the number of migrated cells, is measured using a Spectrafluor Plus plate reader (TECAN, San Jose, CA).
On to `C[C@@H](Nc1nc(N2CCN(C(=O)[C@@H]3CNCCO3)CC2)ncc1Cl)c1ccc(Cl)cc1Cl` [Example 1.145], for which the IC50 was < 100 nM.
The same measure, in the same setting: for `C[C@@H](Nc1nc(N2CCN(C(=O)[C@H]3CC(F)(F)CN3)CC2)ncc1Cl)c1ccc(Cl)cc1Cl` [Example 1.146] the value was 100 to 1000 nM.
Still for that read-out and setting: the value for `C[C@@H](Nc1nc(N2CCN(C(=O)C3CNC(=O)C3)CC2)ncc1Cl)c1ccc(Cl)cc1Cl` (stereo partly drawn) [Example 1.147] was < 100 nM; that for `C[C@@H](Nc1nc(N2CCN(C(=O)[C@H]3CCN(C)C3)CC2)ncc1C(C)(C)O)c1ccc(Cl)cc1Cl` [Example 1.154] was 100 to 1000 nM.
The same measure, in the same setting: for `C[C@@H](Nc1nc(N2CC[C@H](NC(=O)[C@H]3CCCN3)[C@@H](O)C2)ncc1OC(F)F)c1ccc(Cl)cc1Cl` [Example 1.155] the value was < 100 nM; for `COc1cnc(N2CCN(C(=O)[C@H]3CCCN3C)CC2)nc1N[C@H](C)c1ccc(Cl)cc1Cl` [Example 1.156], < 100 nM; for `C[C@@H](Nc1nc(N2CCN(C(=O)[C@H]3CCCN3)CC2)ncc1F)c1ccc(Cl)cc1Cl` [Example 1.157], < 100 nM.
On to `COc1cnc(N2CCC(C3CCCN(CCO)C3)CC2)nc1N[C@H](C)c1ccc(Cl)cc1Cl` (stereo partly drawn) [Example 1.158], for which the IC50 was < 100 nM.
In the case of `C[C@@H](Nc1nc(C2CCN(C(=O)[C@H]3CCCN3)CC2)ncc1Cl)c1ccc(Cl)cc1Cl` [Example 1.159], the IC50 was < 100 nM.
On the same count and under the same terms, for `C[C@@H](Nc1nc(C2CCN(C(=O)[C@H]3CCC(=O)N3)CC2)ncc1Cl)c1ccc(Cl)cc1Cl` [Example 1.160] the value was > 1000 nM.
`CC(C)Oc1cnc(N2CCN(C(=O)C[C@@H]3CCCN3)CC2)nc1N[C@H](C)c1ccc(Cl)cc1Cl` [Example 1.161]: the IC50 was < 100 nM.
As for `C[C@@H](Nc1nc(C2=CCN(C(=O)[C@H]3CCC(=O)N3)CC2)ncc1Cl)c1ccc(Cl)cc1Cl` [Example 1.162], the IC50 is < 100 nM.
Regarding `COc1cnc(N2CCN(C(=O)[C@H]3CCNC3)CC2)nc1N[C@H](C)c1ccc(Cl)cc1Cl` [Example 1.163], the “Serum IC50 (FBS)” value is listed as “+ ++”.
For `COc1cnc(N2CCN(C(=O)C[C@H]3CCCN3)CC2)nc1N[C@H](C)c1ccc(Cl)cc1Cl` [Example 1.164], the concentration for half-maximal inhibition (IC50) is < 100 nM.
With `COc1cnc(N2CCN(C(=O)C3CCN(C)CC3)CC2)nc1N[C@H](C)c1ccc(Cl)cc1Cl` [Example 1.165], the IC50 was < 100 nM.
On to `C[C@@H](Nc1nc(N2CCN(C(=O)C[C@H]3CCCN3)CC2)ncc1OC(F)F)c1ccc(Cl)cc1Cl` [Example 1.166], for which the IC50 was < 100 nM.
On the same count and under the same terms, for `C[C@@H](Nc1nc(N2CCN(C(=O)[C@H]3CCCN3)CC2)ncc1O)c1ccc(Cl)cc1Cl` [Example 1.167] the value was < 100 nM; for `COc1cnc(N2CCN(C(=O)C[C@@H]3CCCN3C)CC2)nc1N[C@H](C)c1ccc(Cl)cc1Cl` [Example 1.168], < 100 nM; for `C[C@@H](Nc1nc(N2CCN(C(=O)C[C@@H]3CCCN3C)CC2)ncc1Cl)c1ccc(Cl)cc1Cl` [Example 1.169], < 100 nM.
On to `COc1cnc(N2CCC(N(C)C(=O)[C@H]3CCCN3)CC2)nc1N[C@H](C)c1ccc(Cl)cc1Cl` [Example 1.170], for which the IC50 was < 100 nM.
Still for that read-out and setting: the value for `C[C@@H](Nc1nc(N2CCN(C(=O)[C@H]3CCC(=O)N3)CC2)ncc1OC(F)F)c1ccc(Cl)cc1Cl` [Example 1.171] was < 100 nM; that for `C[C@@H](Nc1nc(N2CCN(C(=O)[C@H]3CCCN3)CC2)ncc1OC(F)F)c1ccc(Cl)cc1Cl` [Example 1.172] was < 100 nM; that for `COc1cnc(N2CCN(C(=O)[C@H]3CC[C@@H](C)N3)CC2)nc1N[C@H](C)c1ccc(Cl)cc1Cl` [Example 1.173] was < 100 nM.
Same read-out and setting: for `CC(C)Oc1cnc(N2CCN(C(=O)[C@H]3CCCN3)CC2)nc1N[C@H](C)c1ccc(Cl)cc1Cl` [Example 1.174] the value was < 100 nM; for `COc1nc(N2CCN(C(=O)[C@H]3CCCN3)CC2)nc(N[C@H](C)c2ccc(Cl)cc2Cl)c1Cl` [Example 1.175], < 100 nM; for `COc1cnc(N2CCC(NC(=O)[C@H]3CCCN3)CC2)nc1N[C@H](C)c1ccc(Cl)cc1Cl` [Example 1.176], < 100 nM.
As for `COc1cnc(N2CCN(C(=O)C[C@@H]3CCCN3)CC2)nc1N[C@H](C)c1ccc(Cl)cc1Cl` [Example 1.177], the IC50 was < 100 nM.
Regarding `C[C@@H](Nc1nc(N2CCC(O[C@H]3CCN(C)C3)CC2)ncc1Cl)c1ccc(Cl)cc1Cl` [Example 1.178], the IC50 is < 100 nM.
Still for that read-out and setting: for `COc1cnc(N2CC[C@H](NC(=O)[C@H]3CCCN3)[C@@H](O)C2)nc1N[C@H](C)c1ccc(Cl)cc1Cl` [Example 1.179] the value was < 100 nM; for `C[C@@H](Nc1nc(N2CCN(C(=O)C[C@@H]3CCCN3)CC2)ncc1Cl)c1ccc(Cl)cc1Cl` [Example 1.180], < 100 nM.
The same measure, in the same setting: the value for `CCOc1cnc(N2CCN(C(=O)[C@H]3CCCN3)CC2)nc1N[C@H](C)c1ccc(Cl)cc1Cl` [Example 1.181] was < 100 nM.
Still for that read-out and setting: for `CCOc1cnc(N2CCN(C(=O)[C@H]3CCC(=O)N3)CC2)nc1N[C@H](C)c1ccc(Cl)cc1Cl` [Example 1.182] the value was < 100 nM; for `CCOc1cnc(N2CCN(C(=O)CCN(C)C)CC2)nc1N[C@H](C)c1ccc(Cl)cc1Cl` [Example 1.183], < 100 nM; for `CCOc1cnc(N2CCN(C(=O)[C@H]3CCN(C)C3)CC2)nc1N[C@H](C)c1ccc(Cl)cc1Cl` [Example 1.184], < 100 nM.
For the compound `C[C@@H](Nc1nc(N2CCN(C(=O)CCN3CCCC3)CC2)ncc1Cl)c1ccc(Cl)cc1Cl` [Example 1.185], the concentration for half-maximal inhibition (IC50) is < 100 nM.
For the compound `C[C@@H](Nc1nc(N2CCC(O[C@@H]3CNC[C@H]3F)CC2)ncc1Cl)c1ccc(Cl)cc1Cl` [Example 1.186], the IC50 is < 100 nM.
Same read-out and setting: for `COc1cnc(N2CCN(C(=O)CCN(C)C)CC2)nc1N[C@H](C)c1ccc(Cl)cc1Cl` [Example 1.187] the value was < 100 nM; for `COc1cnc(N2CCN(C(=O)[C@H]3CCC(=O)N3)CC2)nc1N[C@H](C)c1ccc(Cl)cc1Cl` [Example 1.188], < 100 nM; for `COc1cnc(N2CCN(C(=O)[C@H]3CCN(C)C3)CC2)nc1N[C@H](C)c1ccc(Cl)cc1Cl` [Example 1.189], < 100 nM.
As to `C[C@@H](Nc1nc(N2CCC(O[C@@H]3CNC[C@@H]3F)CC2)ncc1Cl)c1ccc(Cl)cc1Cl` [Example 1.190], the IC50 is < 100 nM.
Consider `C[C@@H](Nc1nc(N2CCN(C(=O)CCN3CCCC3=O)CC2)ncc1Cl)c1ccc(Cl)cc1Cl` [Example 1.191], for which the IC50 was 100 to 1000 nM.
For `C[C@@H](Nc1nc(N2CCN(C(=O)CN3CCCC3)CC2)ncc1Cl)c1ccc(Cl)cc1Cl` [Example 1.192], the IC50 was < 100 nM.
Turning to `C[C@@H](Nc1nc(N2CCC(O[C@H]3CCN(CCO)C3)CC2)ncc1Cl)c1ccc(Cl)cc1Cl` [Example 1.193], the IC50 was < 100 nM.
Still for that read-out and setting: the value for `C[C@@H](Nc1nc(N2CC[C@H](N(C)C(=O)[C@H]3CCCN3)[C@@H](O)C2)ncc1Cl)c1ccc(Cl)cc1Cl` [Example 1.194] was 100 to 1000 nM.
The same measure, in the same setting: for `C[C@@H](Nc1nc(N2CCN(C(=O)[C@H]3CC4(CC4)C(=O)N3)CC2)ncc1Cl)c1ccc(Cl)cc1Cl` [Example 1.195] the value was 100 to 1000 nM; for `C[C@@H](Nc1nc(N2CCN(C(=O)CCN3CCOCC3)CC2)ncc1Cl)c1ccc(Cl)cc1Cl` [Example 1.196], 100 to 1000 nM.
On to `COc1cnc(N2CCN(C(=O)[C@H]3CCCN3)CC2)nc1N[C@H](C)c1ccc(Cl)cc1Cl` [Example 1.197], for which the half-inhibitory concentration (IC50) is < 100 nM.
Same read-out and setting: the value for `C[C@@H](Nc1nc(N2CCN(C(=O)[C@H]3CCC(=O)N3)CC2)ncc1Cl)c1c(F)cc(Cl)cc1Cl` [Example 1.198] was < 100 nM; that for `C[C@@H](Nc1nc(N2CCC(OC3CNC3)CC2)ncc1Cl)c1ccc(Cl)cc1Cl` [Example 1.199] was 100 to 1000 nM.
Same read-out and setting: for `C[C@@H](Nc1nc(N2CCN(C(=O)[C@H]3CCCNC3)CC2)ncc1Cl)c1ccc(Cl)cc1Cl` [Example 1.201] the value was < 100 nM; for `C[C@@H](Nc1nc(N2CCN(C(=O)[C@H]3CCC(=O)N3)CC2)ncc1Cl)c1cc(F)c(Cl)cc1Cl` [Example 1.202], < 100 nM.
On to `C[C@@H](Nc1nc(N2CC[C@H](NC(=O)CN(C)C)[C@@H](O)C2)ncc1Cl)c1ccc(Cl)cc1Cl` [Example 1.203], for which the IC50 was in the range of 100 to 1000 nM.
Same read-out and setting: for `C[C@H]1CC[C@H](C(=O)N2CCN(c3ncc(Cl)c(N[C@H](C)c4ccc(Cl)cc4Cl)n3)CC2)N1` [Example 1.204] the value was < 100 nM; for `C[C@@H](Nc1nc(N2CCN(C(=O)C3(N)CCOCC3)CC2)ncc1Cl)c1ccc(Cl)cc1Cl` [Example 1.205], 100 to 1000 nM.

Values taken from patent US20230382894A1, “CCR4 ANTAGONISTS” (CHEMOCENTRYX, INC., priority 2022, published 2023).
